Measurements reported in paper PMC4109680, “Identification and Preclinical Pharmacology of the γ-Secretase Modulator BMS-869780” (International Journal of Alzheimer's Disease, 2014).
pIC50: −log10 of the molar value. Where two headings read alike, the source gives them in different places.

What was measured:
mNotch1ΔE = test: Notch signaling CBF1-luciferase reporter assay in HeLa cells transfected with mNotch1ΔE; format: cell-based; conditions: for pIC50: HeLa, treated overnight; for mNotch1ΔE/Aβ1-42: ratio of IC50 values
Protocol: Inhibition of Notch signaling in cultured cells using a mouse-derived truncated Notch1 transgene, mNotch-ΔE [67], has been described in detail previously. Western blots for mNotchΔ1865 and NICD using 9E10 anti-c-myc monoclonal were carried out as previously described.
The effect of BMS-869780 on Notch processing was evaluated using transcriptional reporter assays and western blotting of NICD levels. HeLa cell cultures were transfected with mNotch1ΔE and CBF1-luciferase reporter constructs and treated with BMS-869780. In most replicates of this experiment, inhibition of luciferase reporter occurred with IC50 > 10 μM. […] To further evaluate the effect of BMS-869780 on Notch processing, western blots of cell cultures were carried out using mNotch1Δ1865, a truncated version of mNotch1ΔE that facilitates separation of NICD product from mNotch1 substrate on western blots. HeLa cell cultures were transfected with mNotch1Δ1865 and treated overnight with compounds before western blotting. […] Furthermore, the GSIs caused an increased level of mNotch1Δ1865 substrate, most likely due to inhibition of its turnover by γ-secretase, as previously noted by Blat et al..
(b) HeLa cell cultures were transfected with mNotchΔ1865, treated with compounds overnight, and cell extracts were evaluated by western blot using anti-c-myc-HRP conjugate. Lanes 1 and 9: DMSO (0.1%) vehicle. Lane 2: BMS-299897 at 1 μM. Lane 3: BMS-433796 at 0.3 μM. Lanes 4–8: BMS-869780 at 0.1, 0.3, 1, 3, and 10 μM, respectively.

[1] = Triple transgenic (3xTg) mouse time course PK/PD, oral dose, indirect response model; format: in vivo; conditions: female, 3xTg (triple transgenic), plasma
Protocol: (§1) Figure 8 Analysis of the PK/PD relationship for BMS-869780 in rats and mice. Rats were dosed orally with BMS-869780 at 10 mg/kg, and triple transgenic mice were orally dosed at 30 mg/kg and 100 mg/kg. Additional groups of rats and mice were dosed with vehicle alone. Brain and plasma were harvested at 3, 5, 8, 16, and 24 hours after dosing for determination of brain Aβ1-42 and plasma BMS-869780 concentration. Group sizes were 5 rats or 4 mice. Whiskers represent standard error. […] The data were fit to a one-compartment PK model and the predicted plasma BMS-869780 concentrations are shown for mouse (solid lines) and rat (broken line). […] The data were fitted using the indirect pharmacodynamic response model and predicted values are shown (solid lines). (c) Brain Aβ1-42 levels were determined for the rats dosed with BMS-869780 at 10 mg/kg (▼) or vehicle alone (●). The data were fitted using the indirect pharmacodynamic response model and predicted values are shown (dashed line). (d) Brain Aβ1-40 levels determined in the same rats as illustrated in (c).
(§2) All experimental procedures with animals followed National Institutes of Health guidelines and were authorized by and in compliance with policies of the Bristol-Myers Squibb Animal Use and Care Committee. Mice and rats were housed with a 6:00 AM to 6:00 PM light/dark cycle and allowed free access to food and water. For 3xTg mice, BMS-869780 was dosed in three-month-old females by oral gavage at 6 mL/kg in vehicle consisting of 84% polyethylene glycol average molecular weight of 400 (PEG-400), 15% EtOH, and 1% Tween-80 (w/w/w). The compound was dissolved in EtOH and then diluted with PEG-400 and Tween, after which the vial was sealed, vortexed, and sonicated at 56°C for 1 hour. Animals were euthanized by asphyxiation in CO2. Blood was collected by cardiac puncture and placed into ethylene-diaminetetraacetic acid microtainer tubes for the preparation of plasma. The cerebellum was collected for the determination of compound concentration, and the remaining brain was separated into left and right halves before freezing in liquid nitrogen. For the rat time course study, 8- to 12-week-old female Sprague-Dawley rats were obtained from Charles River Laboratories (Wilmington, MA), BMS-869780 was dosed orally at 4 mL/kg, and brain and plasma samples were collected as described for the 3xTg mice. For the four day repeat dose rat study, BMS-869780 was given by oral gavage in vehicle consisting of PEG-400, PEG-200, D-α-tocopheryl polyethylene glycol succinate, Solutol HS 15, in the ratio 80 : 10 : 5 : 5 (w/w/w/w). Methods for the pharmacokinetics studies in rat, dog, and monkey are described below.
(§3) The data generated in the mouse and rat time course experiments were analyzed sequentially by nonlinear regression (WinNonlin Pharsight Corporation, Mountain View, CA). The pharmacokinetic data were best described by a 1-compartment linear model with first-order absorption and elimination. Subsequently, the pharmacodynamic parameters were estimated from the BMS-869780 plasma concentrations and the observed reductions of brain Aβ1-42 or Aβ1-40 by fitting to the equation for inhibition of synthesis. The goodness-of-fit was determined by visual inspection, Akaike Information Criterion, Schwartz Criterion, examination of the residuals and the coefficient of variation of the parameter estimates.

brain Aβ1-42 = test: as above; format: in vivo; conditions: for pIC50: po
Protocol: as §1, §2, §3

[2] = Mouse 30 mg/kg PO solution (observed 0–24 hours)
[3] = Mouse 100 mg/kg PO solution (observed 0–24 hours)

Compound | Notch/Aβ1-42 IC50 ratios (mNotch1ΔE; GSIs) | pIC50 (mNotch1ΔE) | mNotch1ΔE/Aβ1-42 (mNotch1ΔE) | ratio of Notch to Aβ1-42 IC50s (mNotch1ΔE; based on IC50 >10 μM for Notch) | k el ([1]; oral, mouse, 1-compartment PK model) | AUC(0-t) [1, 2] | AUC(0-t) [1, 3] | Brain Aβ ABEC 24 hr Aβ1-42 (brain Aβ1-42; [2]) | Brain Aβ ABEC 24 hr Aβ1-42 (brain Aβ1-42; [3]) | V/F (brain Aβ1-42; mouse) | Ka1 (30 mg/kg) (brain Aβ1-42; mouse, 30 mg/kg oral) | Ka2 (100 mg/kg) (brain Aβ1-42; mouse, 100 mg/kg oral) | K in (brain Aβ1-42; mouse, calculated) | K OUT (brain Aβ1-42; mouse, rate constant for degradation of Aβ) | pIC50 (brain Aβ1-42; mouse, PD model, read-out: IC50 (plasma concentration required for 50% inhibition of Aβ production)) | pIC50 (brain Aβ1-42; mouse, read-out: in vivo plasma IC50 for brain Aβ1-42)
C[C@H](c1ccc(F)cc1CCCC(=O)O)N(c1cc(F)ccc1F)S(=O)(=O)c1ccc(Cl)cc1 [BMS-299897, reference compound] | 723 | 6.47 | 723x | – | – | – | – | – | – | – | – | – | – | – | – | –
COc1cc(Nc2nc3n(n2)CCCC[C@H]3c2ccc(F)cc2)ccc1-n1cnc(Cl)c1 [BMS-869780] | – | < 5.00 | >1785x | > 1785 fold | 7.78e-05 s⁻¹ | 45.9 µM·h | 102 µM·h | 30.9% | 55.1% | 1.94 L/kg | 0.11 h⁻¹ | 0.046 h⁻¹ | 72 %/h | 0.72 h⁻¹ | 5.40 | 5.40
